Assay type in all cases: functional
Assay [1] has as its system Histophilus somni. Nature of the assay: Antimicrobial activity against Histophilus somni 23N2359 after 17 hrs by serial agar dilution method. As to conditions: 23N2359, 17 h. (In agar dilution, organisms are placed on agar that contains the substance at set levels.)
The subject of assay [2] is Mannheimia haemolytica. Put plainly: Antimicrobial activity against Mannheimia haemolytica N811 after 17 hrs by serial agar dilution method.
The test system of assay [3] is Pasteurella multocida. Nature of the assay: Antimicrobial activity against Pasteurella multocida M-17 after 17 hrs by serial agar dilution method. The following applies: M-17, 17 h.
For assay [4], the system named is Pasteurella multocida. Nature of the assay: Antimicrobial activity against Pasteurella multocida TS-8 after 17 hrs by serial agar dilution method.
Assay [5] deals with Pasteurella multocida. Put plainly: Antimicrobial activity against Pasteurella multocida Kobe after 17 hrs by serial agar dilution method.
Assay [6] has as its system Pasteurella multocida. Nature of the assay: Antimicrobial activity against Pasteurella multocida isolate 6 after 17 hrs by serial agar dilution method.
Assay [7] deals with Actinobacillus pleuropneumoniae. Nature of the assay: Antimicrobial activity against Actinobacillus pleuropneumoniae NB001 after 17 hrs by serial agar dilution method.
The subject of assay [8] is Mannheimia haemolytica. Nature of the assay: Antimicrobial activity against Mannheimia haemolytica N791 after 17 hrs by serial agar dilution method. The following applies: N791, 17 h.
Assay [9] has as its system Mannheimia haemolytica. Put plainly: Antimicrobial activity against Mannheimia haemolytica S801 after 17 hrs by serial agar dilution method.
The mark [10] stands for this setting: Mannheimia haemolytica, N811, 17 h, read-out: MIC.
[11] abbreviates: Pasteurella multocida, TS-8, 17 h, read-out: MIC.
[12] abbreviates: Pasteurella multocida, isolate 6, 17 h, read-out: MIC.
The mark [13] stands for this setting: Actinobacillus pleuropneumoniae, NB001, 17 h, read-out: MIC.
[14] abbreviates: Mannheimia haemolytica, S801, 17 h, read-out: MIC.

Drawing on ChEMBL document CHEMBL1255519, “The synthesis of paleic acid, an antimicrobial agent effective against Mannheimia and Pasteurella, and its structurally related derivatives” (2010), this text covers MIC for ten molecules.

Values after ≈ are worked out from the molar mass of the structure shown.

The term MIC denotes the smallest concentration in the dilution series that meets the test's criterion for growth inhibition. For the molecule `CC[C@@H](O)CCCCC/C=C\CCCCCCCC(=O)NS(C)(=O)=O`, the MIC in assay [1] is over 50 µg/mL; in assay [2] (setting [10]), 50 µg/mL (≈ 133 µM); in [3], over 50 µg/mL; in assay [4] (setting [11]), 25 µg/mL (≈ 66.6 µM); in [5], over 50 µg/mL; in assay [6] (setting [12]) it was 50 µg/mL (≈ 133 µM). Also, the MIC was over 50 µg/mL in [7] (setting [13]), 50 µg/mL (≈ 133 µM) in assay [8] and 25 µg/mL (≈ 66.6 µM) in [9] (setting [14]).

For `CC/C(CCCCC/C=C\CCCCCCCC(=O)O)=N/O`, the MIC is over 50 µg/mL in assay [1]; 1.56 µg/mL (≈ 5.01 µM) in assay [2] (setting [10]); over 50 µg/mL in assay [3]; 25 µg/mL (≈ 80.3 µM) in [4] (setting [11]); over 50 µg/mL in assay [5]; 3.13 µg/mL (≈ 10 µM) in [6] (setting [12]). Besides, the MIC in [7] (setting [13]) was determined as 6.25 µg/mL (≈ 20.1 µM); in assay [8], 1.56 µg/mL (≈ 5.01 µM); in assay [9] (setting [14]), 1.56 µg/mL (≈ 5.01 µM).

`CCC(=O)CCCCC/C=C\CCCCCCCC(=O)O`: the minimum inhibitory concentration (MIC) is over 50 µg/mL in assay [1]; 6.25 µg/mL (≈ 21.1 µM) in assay [2] (setting [10]); over 50 µg/mL in assay [3]; 50 µg/mL (≈ 169 µM) in [4] (setting [11]); over 50 µg/mL in assay [5]; 50 µg/mL (≈ 169 µM) in assay [6] (setting [12]). In addition, the results for the MIC in [7] (setting [13]), in [8] and in assay [9] (setting [14]) were 6.25 µg/mL (≈ 21.1 µM), 3.13 µg/mL (≈ 10.6 µM) and 6.25 µg/mL (≈ 21.1 µM), respectively.

With `CC[C@H](O)CCCCC/C=C\CCCCCCCC(=O)O`, the MIC in assay [1] is over 50 µg/mL; in assay [2] (setting [10]) it was 0.78 µg/mL (≈ 2.61 µM); in assay [3], over 50 µg/mL; in assay [4] (setting [11]), 6.25 µg/mL (≈ 20.9 µM); in assay [5] it was over 50 µg/mL; in [6] (setting [12]), 50 µg/mL (≈ 168 µM). Besides, the MIC in [7] (setting [13]) worked out at 12.5 µg/mL (≈ 41.9 µM); in [8], 0.78 µg/mL (≈ 2.61 µM); in assay [9] (setting [14]) it was 0.39 µg/mL (≈ 1.31 µM).

As to `CC[C@@H](O)CCCCC/C=C\CCCCCCCC(=O)NO`, the MIC in assay [1] was over 50 µg/mL; in [2] (setting [10]) it was 25 µg/mL (≈ 79.7 µM); in assay [3] it was over 50 µg/mL; in [4] (setting [11]) it was 50 µg/mL (≈ 159 µM); in assay [5], over 50 µg/mL; in [6] (setting [12]), 12.5 µg/mL (≈ 39.9 µM). Moreover, the MIC turned out to be 50 µg/mL (≈ 159 µM) in [7] (setting [13]), 25 µg/mL (≈ 79.7 µM) in assay [8] and 50 µg/mL (≈ 159 µM) in [9] (setting [14]).

Consider `CC[C@@H](O)CCCCC/C=C\CCCCCCCC(=O)O` (stereo in doubt; 2) [PALEIC ACID], for which the MIC in assay [2] came to 0.78 µg/mL (≈ 2.61 µM); in [4], 6.25 µg/mL (≈ 20.9 µM); in assay [6], 12.5 µg/mL (≈ 41.9 µM); in [7], 6.25 µg/mL (≈ 20.9 µM); in assay [9] it was 0.78 µg/mL (≈ 2.61 µM).

Regarding `CCC1(CCCCC/C=C\CCCCCCCC(=O)O)OCCO1`, the MIC is over 50 µg/mL in assay [1]; 25 µg/mL (≈ 73.4 µM) in assay [2] (setting [10]); over 50 µg/mL in assay [3]; 25 µg/mL (≈ 73.4 µM) in assay [4] (setting [11]); 50 µg/mL (≈ 147 µM) in [5]; over 50 µg/mL in [6] (setting [12]). In addition, the figures for the MIC in assay [7] (setting [13]), in assay [8] and in assay [9] (setting [14]) were over 100 µg/mL, 25 µg/mL (≈ 73.4 µM) and 25 µg/mL (≈ 73.4 µM), respectively.

With `CC[C@@H](O)CCCCC/C=C\CCCCCCCC(N)=O`, the MIC in [1] was over 50 µg/mL; in [2] (setting [10]), 12.5 µg/mL (≈ 42 µM); in [3] it was over 50 µg/mL; in assay [4] (setting [11]), 50 µg/mL (≈ 168 µM); in assay [5], over 50 µg/mL; in assay [6] (setting [12]) it was over 50 µg/mL. The MIC in assay [7] (setting [13]) was over 50 µg/mL; in assay [8] it was 25 µg/mL (≈ 84 µM); in assay [9] (setting [14]), 50 µg/mL (≈ 168 µM).

As to `CC[C@@H](O)CCCCC/C=C\CCCCCCCC(=O)O` (stereo in doubt; 1) [PALEIC ACID], the MIC in assay [1] is over 50 µg/mL; in assay [2] (setting [10]), 1.56 µg/mL (≈ 5.23 µM); in [3], over 50 µg/mL; in [4] (setting [11]), 3.13 µg/mL (≈ 10.5 µM); in assay [5], over 50 µg/mL; in assay [6] (setting [12]), 6.25 µg/mL (≈ 20.9 µM). The MIC is 6.25 µg/mL (≈ 20.9 µM) in assay [7] (setting [13]), 0.78 µg/mL (≈ 2.61 µM) in assay [8] and 1.56 µg/mL (≈ 5.23 µM) in assay [9] (setting [14]).

As to `CC[C@@H](O)CCCCC/C=C\CCCCCCCc1nnn[nH]1`, the minimal inhibitory concentration (MIC) in assay [1], in assay [2] (setting [10]), in assay [3], in [4] (setting [11]), in [5] and in assay [6] (setting [12]) was 50 µg/mL (≈ 155 µM) in each case. Also, the minimum inhibitory concentration (MIC) in assay [7] (setting [13]), in [8] and in assay [9] (setting [14]) was 50 µg/mL (≈ 155 µM) throughout.
